Data: patent US20250082618A1, “DOSING REGIMENS USING TOPICAL ROFLUMILAST COMPOSITIONS” (ARCUTIS BIOTHERAPEUTICS, INC., priority 2023, published 2025)

Tested on: patients with atopic dermatitis
Assay: Phase III open-label trial: vIGA-AD, maintenance (BIW) dosing and disease control
Format: in vivo, human
Method: The vIGA-AD is a static evaluation of qualitative overall AD severity. This global assessment scale is an ordinal scale with five severity grades (reported only in integers of 0 to 4). Each grade is defined by a distinct and clinically relevant morphologic description that minimizes inter-observer variability (see Table 1). vIGA-AD is evaluated for the entire body except the scalp, palms, and soles.
A Phase III, multicenter, open-label clinical trial was carried out to investigate the use of a topical roflumilast emollient cream to treat patients with atopic dermatitis. The primary objective of this study was to assess long-term safety in a multicenter, open-label, single-arm study in subjects with atopic dermatitis treated with either […] (for subjects ≥6 years of age) or 0.05% (for subjects between 2 to 5 years of age) topical roflumilast cream.
The primary endpoints of the study were adverse events or serious adverse events. The secondary endpoints of this study were validated investigator Global assessment-atopic dermatitis (“vIGA-AD”) value 0 or 1 at each assessment, vIGA-AD success (defined as vIGA-AD value of 0 or 1 plus a 2-grade improvement from baseline), Worst Itch-Numeric Rating Score (“WI-NRS”) score over time, and Eczema Area and Severity Index (“EASI”) score over time.
All patients enrolled in this phase III study applied either a 0.15% or 0.05% roflumilast topical cream once daily until Week 4 of the study. Patients between 2-5 years of age received 0.05% roflumilast topical cream and patients 6 years of age or older received 0.15% roflumilast. Subjects who reached 6 years of age during the study were switched from 0.05% to 0.15% roflumilast topical cream at the first scheduled clinical visit following their sixth birthday. Study medication was applied for up to 24 or 52 weeks to all affected areas, except on the scalp. Beginning at the Week 4 visit, any subject who achieved vIGA-AD of 0 as confirmed by the Investigator at a scheduled or unscheduled clinical visit, was switched from daily to twice weekly administration of roflumilast topical cream. Instructions for the twice weekly administration were to apply the roflumilast topical cream on two nonconsecutive days per week (e.g. Monday and Thursday) to areas commonly and/or most recently affected by atopic dermatitis and any areas where atopic dermatitis was developing.
Clinical visits and phone contact were scheduled at Weeks 4, 12, 18, 24, 30, 36, 44, and 52 of the study. At clinical visits, subjects receiving twice weekly treatment (“maintenance treatment”) were permitted to continue maintenance treatment if vIGA-AD was either 0 or 1. Subjects evaluated at clinical visits with vIGA-AD 2 or greater were instructed to resume daily administration of roflumilast topical cream. Patients were also permitted to resume daily dosing, despite a vIGA-AD of 1, if signs or symptoms of atopic dermatitis were not adequately controlled with maintenance therapy.
Median duration of the first maintenance dosing period was ≥124 days for the 24-week cohort and ≥270 days for the 52-week cohort. 65% percent of these patients were on a maintenance dosing regimen through the final visit. Disease control was defined as a vIGA-AD score of 0, a switch to a maintenance dosing regimen, and a maintenance of a vIGA-AD score of 0 or 1.

In the case of `O=C(Nc1c(Cl)cncc1Cl)c1ccc(OC(F)F)c(OCC2CC2)c1` [roflumilast, N-(3,5-dichloropyrid-4-yl)-3-cyclopropylmethoxy-4-difluoromethoxybenzamide], the “Median duration of the first maintenance (BIW) dosing period” value (24-week cohort) is reported as at least 124 days, the “Median duration of the first maintenance (BIW) dosing period” value (52-week cohort) is reported as at least 270 days and the “number of patients who achieved vIGA-AD=0 and switched to maintenance (BIW) dosing” value (by Week 24 and Week 52) is reported as 132. For the same molecule, the “patients who achieved vIGA-AD=0 and switched to maintenance (BIW) dosing” value (by Week 24 and Week 52, once daily, twice weekly after vIGA-AD 0) was 20.1% and the “patients on maintenance (BIW) dosing regimen through the final visit” value (of the 132 patients who switched) was 65%.
